In US20250170212A1, “COMPOSITIONS AND METHODS OF TREATING AMYOTROPHIC LATERAL SCLEROSIS (ALS) AND RELATED DISORDERS” (BIOINCEPT, LLC, priority 2022, published 2025):
Entries after “also recorded” stand apart in the source; their conditions may differ.

Tests used:
[1] = system: transgenic SOD1^G93A mice; experiment: Survival of ALS mice (Kaplan-Meier) after mGRPs transplantation with immunomodulatory drugs; format: in vivo, mouse; details: n=6 per group, mGRPs into cisterna magna, drug groups all with mGRPs: sPIF 1 mg/kg day -1 to 14, Tac 1 mg/kg daily to day 56, CB 25 mg/kg days 0, 2, 4, 6
Source text: B6.Cg-Tg (SOD1^G93A) 1Gur/J (Animalab, The Jackson Laboratory, Bar Harbor, ME, USA, RRID: IMSR JAX:004435) and SCID (Animalab, Charles River Laboratory, Wilmington, MA, USA, RRID: IMSR_JAX:001303) mice were obtained from JaxMice. SOD1^G93A animals were divided randomly into 5 groups and SCID animals were used as control.
mGRP cells were received as a gift from the Department of Radiology and Radiological Science, Johns Hopkins School of Medicine (Baltimore, MD, USA). Cells were isolated as previously described from spinal cords dissected from Luc+/PLP/GFP+ mice between E12.5 and E14 stage. […] The viability of the mGRPs was assessed with trypan blue exclusion and only suspensions with over 70% of cell viability were used for transplantation. […]
All quantifications were performed including the manual cell counts in a blinded manner. The NeuN and Ibal were counted as positive cells in the ROI (see above) as previously reported. The number of cells was determined by unbiased counting of positive cells. […] Differences between groups were analyzed using a repeated measure ANOVA model with a fixed effect for the group, of the time and a random intercept for the mouse. In a second, more explorative, approach for each group the time when the physical activity was first measured below a certain threshold was determined. […]

[2] = system: GFP+ mGRPs, GFAP+ astrocytes, OLIG2+ oligodendrocytes
Experimental: Paraffin slides of the brain tissue after heated in 1 h in 60° C. were deparaffinized in: 1×10 min. Xylen I, 1×10 min Xylen II, 1×10 min EtOH 100%, 1×10 min EtOH 70%, 1×10 min EtOH 40%, 1×10 min dest. H2O. The target was retrieved in Citrate Buffer+Tween 20 (10 mM, pH=6.0) in a water bath for 20 minutes in 97° C. and then they were let cool down for another 20 minutes. Slides were washed in PBS three times and blocked 1 hour in 10% Goat serum+1% bovine albumin serum. All slides was incubated overnight at 4° C. with a first primary mouse Anti-GFP antibody 1:500 (Abcam Cat #ab1218, RRID: AB_298911). Washed three times with PBS, then secondary antibody Goat Anti-Mouse IgG H&L (Alexa Fluor® 488) in concentration 1:700 (Abcam Cat #ab 150117, RRID: AB_2688012) was applied for 40 min in RT. Then one part of the slides was washed three times in PBS and the second primary Rabbit Anti-GFAP antibody (Abcam Cat #ab7260, RRID: AB_305808) was applied 1:1000, incubated overnight at 4° C. After that the secondary antibody Goat Anti-Rabbit IgG H&L (Alexa Fluor® 594) (Abcam Cat #ab 150080, RRID: AB_2650602) was applied for 40 min RT in concentration 1:700. The second part of the slides was incubated with Rabbit Recombinant Anti-Olig2 antibody (Abcam Cat #ab109186, RRID: AB_10861310) 1:100 incubated overnight in 4° C. Next day the secondary antibody Goat Anti-Rabbit IgG H&L (Alexa Fluor® 594) (Abcam Cat #ab150080, RRID: AB_2650602) was applied for 40 min RT in 1:700 concentration. […] The slides were washed in PBS, mounted with DAKO mounting medium (Agilent Technologies, Santa Clara, CA, United States) and analyzed under Leica DM5500 fluorescent microscopy with LAS X software.

[3] = system: experimental autoimmune encephalomyelitis; details: murine EAE models; cited from earlier work
[4] = whole cross section of the mouse diencephalon

With MVRIKPGSANKPSDD [sPIF] the “mice survival (Kaplan-Meier)” value [1] was “seemed to be superior compared to other immune modulatory drugs; also recorded: seems superior but did not reach statistical significance”, the “mGRPs progeny: GFP+ astrocytes and oligodendrocytes in brain parenchyma” value ([2]; diencephalon, day 56) was “few GFP+ astrocytes and oligodendrocytes in the brain parenchyma” and the “area of astrocytes (GFAP+)” value [2, 4] was “significantly larger area of astrocytes”. For the same sequence, the “area of oligodendrocytes (OLIG2+)” value [2, 4] was “larger area of oligodendrocytes” and the paralysis and myelination [3] was “reverse and prevent paralysis and restore myelination”.
